Data as given in patent US20180002288A1, “USE OF PICOLINAMIDES AS FUNGICIDES” (DOW AGROSCIENCES LLC, priority 2014, published 2018).

Experiments:
Format in all cases: in vivo
[1] = tested on: Colletotrichum lagenarium; assay: Cucumber Anthracnose fungicidal activity (COLLLA); conditions: Colletotrichum orbiculare, 24 h, high volume, 1 Day Protectant, read-out: COLLLA % Control rating
Protocol: (§1) All fungicides were evaluated using the aforementioned method for their activity vs. all target diseases, unless stated otherwise. Wheat leaf blotch and brown rust activity were also evaluated using track spray applications, in which case the fungicides were formulated as EC formulations, containing 0.1% Trycol 5941 in the spray solutions. Wheat plants (variety Yuma) were grown from seed in a greenhouse in 50% mineral soil/50% soil-less Metro mix until the first leaf was fully emerged, with 7-10 seedlings per pot. These plants were inoculated with an aqueous spore suspension of Zymoseptoria tritici either prior to or after fungicide treatments. After inoculation the plants were kept in 100% relative humidity (one day in a dark dew chamber followed by two to three days in a lighted dew chamber at 20° C.) to permit spores to germinate and infect the leaf. The plants were then transferred to a greenhouse set at 20° C. for disease to develop. When disease symptoms were fully expressed on the 1st leaves of untreated plants, infection levels were assessed on a scale of 0 to 100 percent disease severity. Percent disease control was calculated using the ratio of disease severity on treated plants relative to untreated plants. Cucumber seedlings (variety Bush Pickle) were propagated in soil-less Metro mix, with each pot having one plant, and used in the test when 12 to 14 days old. Test plants were inoculated with an aqueous spore suspension of Colletotrichum lagenarium 24 hr after fungicide treatments. After inoculation the plants were kept in a dew room at 22° C. with 100% relative humidity for 48 hr to permit spores to germinate and infect the leaf. The plants were then transferred to a growth room set at 22° C. for disease to develop. Fungicide formulation, application and disease assessment on the sprayed leaves followed the procedures as described in the Example A.

[2] = tested on: Pyricularia oryzae; assay: whole plant or invertebrate; conditions: 24 h, read-out: PYRIOR % Control rating
[3] = tested on: Alternaria solani; assay: Tomato Early Blight fungicidal activity (ALTESO); conditions: 24 h, high volume, 1 Day Protectant, read-out: ALTESO % Control rating
Protocol: as §1, with “Tomato plants” for “Cucumber seedlings”, “Outdoor Girl)” for “Bush Pickle)”, “used” for “used in the test”, “Alternaria solani” for “Colletotrichum lagenarium”, “room” for “room set”

[4] = tested on: Cercospora beticola; assay: Leaf Spot of Sugar Beets fungicidal activity (CERCBE); conditions: 24 h, sugar beet, high volume, 1 Day Protectant, read-out: CERCBE % Control rating
Protocol: All fungicides were evaluated using the aforementioned method for their activity vs. all target diseases, unless stated otherwise. Wheat leaf blotch and brown rust activity were also evaluated using track spray applications, in which case the fungicides were formulated as EC formulations, containing 0.1% Trycol 5941 in the spray solutions. Wheat plants (variety Yuma) were grown from seed in a greenhouse in 50% mineral soil/50% soil-less Metro mix until the first leaf was fully emerged, with 7-10 seedlings per pot. These plants were inoculated with an aqueous spore suspension of Zymoseptoria tritici either prior to or after fungicide treatments. After inoculation the plants were kept in 100% relative humidity (one day in a dark dew chamber followed by two to three days in a lighted dew chamber at 20° C.) to permit spores to germinate and infect the leaf. The plants were then transferred to a greenhouse set at 20° C. for disease to develop. When disease symptoms were fully expressed on the 1st leaves of untreated plants, infection levels were assessed on a scale of 0 to 100 percent disease severity. Percent disease control was calculated using the ratio of disease severity on treated plants relative to untreated plants. Sugar beet plants (variety HH88) were grown in soil-less Metro mix and trimmed regularly to maintain a uniform plant size prior to test. Plants were inoculated with a spore suspension 24 hr after fungicide treatments. Inoculated plants were kept in a dew chamber at 22° C. for 48 hr then incubated in a greenhouse set at 24° C. under a clear plastic hood with bottom ventilation until disease symptoms were fully expressed. Fungicide formulation, application and disease assessment on the sprayed leaves followed the procedures as described in the Example A.

[5] = tested on: Leptosphaeria nodorum; assay: Wheat Glume Blotch fungicidal activity (LEPTNO); conditions: Parastagonospora nodorum, 24 h, high volume, 1 Day Protectant, read-out: LEPTNO % Control rating
Protocol: All fungicides were evaluated using the aforementioned method for their activity vs. all target diseases, unless stated otherwise. Wheat leaf blotch and brown rust activity were also evaluated using track spray applications, in which case the fungicides were formulated as EC formulations, containing 0.1% Trycol 5941 in the spray solutions. Wheat plants (variety Yuma) were grown from seed in a greenhouse in 50% mineral soil/50% soil-less Metro mix until the first leaf was fully emerged, with 7-10 seedlings per pot. These plants were inoculated with an aqueous spore suspension of Zymoseptoria tritici either prior to or after fungicide treatments. After inoculation the plants were kept in 100% relative humidity (one day in a dark dew chamber followed by two to three days in a lighted dew chamber at 20° C.) to permit spores to germinate and infect the leaf. The plants were then transferred to a greenhouse set at 20° C. for disease to develop. When disease symptoms were fully expressed on the 1st leaves of untreated plants, infection levels were assessed on a scale of 0 to 100 percent disease severity. Percent disease control was calculated using the ratio of disease severity on treated plants relative to untreated plants. Wheat plants (variety Yuma) were grown from seed in a greenhouse in 50% mineral soil/50% soil-less Metro mix until the first leaf was fully emerged, with 7-10 seedlings per pot. These plants were inoculated with an aqueous spore suspension of Leptosphaeria nodorum 24 hr after fungicide treatments. After inoculation the plants were kept in 100% relative humidity (one day in a dark dew chamber followed by two days in a lighted dew chamber at 20° C.) to permit spores to germinate and infect the leaf. The plants were then transferred to a greenhouse set at 20° C. for disease to develop. Fungicide formulation, application and disease assessment followed the procedures as described in the Example A.

Row | Compound | pest or weed control at 100 ppm [1] [%] | pest or weed control at 100 ppm [2] [%] | pest or weed control at 100 ppm [3] [%] | pest or weed control at 100 ppm [4] [%] | pest or weed control at 100 ppm [5] [%]
1 | COc1ccnc(C(=O)N[C@@H](C)C(=O)O[C@@H](C)[C@H](Oc2ccccc2)c2ccccc2)c1OCOC(C)=O [Example 183] | > 80 | > 80 | < 80 | > 80 | > 80
2 | COc1ccnc(C(=O)N[C@@H](C)C(=O)O[C@@H](C)C(Oc2ccc(F)cc2)c2ccccc2)c1OC(C)=O (some centres unmarked) [Example 236] | < 80 | > 80 | < 80 | > 80 | > 80
3 | COc1ccnc(C(=O)N[C@@H](C)C(=O)O[C@@H](C)[C@H](Oc2ccccc2)c2ccc(C)cc2)c1OCOC(C)=O [Example 252] | > 80 | > 80 | < 0 | > 80 | > 80
4 | COc1ccnc(C(=O)N[C@@H](C)C(=O)O[C@@H](C)[C@H](Oc2ccccc2)c2ccc(F)cc2C)c1OCOC(C)=O [Example 259] | > 80 | > 80 | < 0 | > 80 | > 80
5 | COc1ccnc(C(=O)N[C@@H](C)C(=O)O[C@@H](C)[C@H](Oc2cccc(F)c2)c2ccccc2)c1OCOC(C)=O [Example 187] | > 80 | > 80 | < 80 | > 80 | > 80
6 | COc1ccnc(C(=O)N[C@@H](C)C(=O)O[C@@H](C)[C@H](Oc2ccccc2Cl)c2ccccc2)c1OC(C)=O [Example 205] | > 80 | > 80 | < 80 | > 80 | > 80
7 | COc1ccnc(C(=O)N[C@@H](C)C(=O)O[C@@H](C)[C@H](Oc2cccc(Cl)c2)c2ccccc2)c1OCOC(C)=O [Example 202] | < 80 | < 80 | < 0 | < 80 | < 80
8 | COc1ccnc(C(=O)N[C@@H](C)C(=O)O[C@@H](C)[C@H](Oc2ccccc2)c2ccc(F)cc2F)c1OCOC(C)=O [Example 250] | > 80 | < 80 | < 0 | < 80 | < 0
9 | COc1cc(F)ccc1[C@@H](Oc1ccccc1)[C@H](C)OC(=O)[C@H](C)NC(=O)c1nccc(OC)c1OCOC(C)=O [Example 256] | > 80 | > 80 | < 80 | > 80 | > 80
10 | COc1ccnc(C(=O)N[C@@H](C)C(=O)O[C@@H](C)[C@H](Oc2ccccc2)c2ccc(F)cc2Cl)c1OCOC(C)=O [Example 260] | > 80 | > 80 | < 0 | > 80 | > 80
11 | COc1ccnc(C(=O)N[C@@H](C)C(=O)O[C@@H](C)[C@H](Oc2cc(F)cc(Cl)c2)c2ccccc2)c1OC(C)=O [Example 207] | > 80 | > 80 | < 0 | > 80 | > 80
12 | COc1ccnc(C(=O)N[C@@H](C)C(=O)O[C@@H](C)[C@H](Oc2ccc(F)cc2)c2ccccc2)c1OCOC(C)=O [Example 237] | < 80 | > 80 | < 80 | > 80 | > 80
13 | COc1ccnc(C(=O)N[C@@H](C)C(=O)O[C@@H](C)[C@H](Oc2ccc(F)cc2)c2ccccc2)c1OC(C)=O [Example 235] | > 80 | > 80 | < 80 | > 80 | > 80
14 | COc1ccnc(C(=O)N[C@@H](C)C(=O)O[C@@H](C)[C@H](Oc2ccccc2)c2ccc3ccccc3c2)c1OCOC(C)=O [Example 263] | > 80 | > 80 | < 0 | > 80 | > 80
15 | COc1ccccc1[C@@H](Oc1ccccc1)[C@H](C)OC(=O)[C@H](C)NC(=O)c1nccc(OC)c1OCOC(C)=O [Example 255] | > 80 | > 80 | < 0 | > 80 | > 80
16 | COc1ccnc(C(=O)N[C@@H](C)C(=O)O[C@@H](C)C(Oc2ccc(F)cc2)c2ccc(F)cc2)c1OCOC(C)=O (some centres unmarked) [Example 238] | < 80 | > 80 | > 80 | > 80 | > 80
